Laboratory results taken from ChEMBL document CHEMBL1201862, “PubChem BioAssay data set” (2004).
Calls of active or inactive are those of the source.

Assays:
[1] = inhibitors of firefly luciferase expression or activity, dose response, H4 neuroglioma cells, luminescence (AID 1990); assay type: functional, cell-based
BJ [2] = assay: cytotoxicity toward BJ-TERT fibroblasts, dose response, cell-based, RAS-independent, luminescence (AID 1933); assay type: functional; settings: Homo sapiens
[3] = Luminescence Cell-Based Dose Response HTS to Identify Inhibitors of 5'UTR Stem-Loop Driven Prion Protein mRNA Translation in H4 Neuroglioblastoma Cells. [Related pubchem assays: 1827 (Project Summary), 1813 (Primary HTS)]; assay type: functional
[4] = inhibitors of SNCA 5'UTR-driven reporter translation, confirmation, H4 neuroglioma cells, luminescence (AID 1988); assay type: functional, cell-based
BJ [5] = assay: cells; assay type: functional, cell-based; settings: Homo sapiens
BJ [6] = assay: cytotoxicity toward BJ-TERT-LT-ST fibroblasts, dose response, cell-based, RAS-independent, luminescence (AID 1935); assay type: functional; settings: Homo sapiens;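 also: BJ fibroblasts immortalized with TERT plus LT and ST oncogenes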
[7] = cytotoxicity toward DRD oncogenic fibroblasts, dose response, cell-based, non-viral oncogenic, luminescence (AID 1934); assay type: functional; settings: Homo sapiens
[8] = inhibitors of PGC1a acetylation in cells, dose response, cell-based, cherry-picked samples (AID 720514); assay type: functional;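 also: potency may reflect raised or lowered acetylation signal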
[9] = P. falciparum Dd2 growth inhibitors, dose response, SYBR Green, cherry-picked samples (AID 1159567); assay type: functional, cell-based
[10] = HepG2 cell cytotoxicity, dose response, cytotoxicity control, cherry-picked samples (AID 1159577); assay type: functional, cell-based
[11] = molecular target: G-protein coupled receptor 55 (Homo sapiens, UniProt Q9Y2T6); assay: GPR55 antagonists blocking LPI-driven arrestin recruitment, primary screen, imaging, U2OS, beta-arrestin-GFP, LPI agonist (AID 2013); assay type: functional;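 also: antagonist potency measured as reduced agonist-driven arrestin aggregation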
Sequence of G-protein coupled receptor 55 (Q9Y2T6 whole entry): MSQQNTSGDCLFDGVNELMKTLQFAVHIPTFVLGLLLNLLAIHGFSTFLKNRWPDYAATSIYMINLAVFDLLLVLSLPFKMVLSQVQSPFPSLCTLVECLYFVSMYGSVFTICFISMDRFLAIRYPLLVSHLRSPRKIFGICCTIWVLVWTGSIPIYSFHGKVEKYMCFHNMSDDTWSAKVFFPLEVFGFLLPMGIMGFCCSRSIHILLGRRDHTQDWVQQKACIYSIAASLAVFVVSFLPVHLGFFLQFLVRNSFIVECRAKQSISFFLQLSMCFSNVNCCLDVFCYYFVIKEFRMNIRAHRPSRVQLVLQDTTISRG

[12] = molecular target: T1, Corticotropin-releasing factor receptor 2/Corticotropin-releasing factor-binding protein (Homo sapiens, UniProt P24387+Q13324); assay: Dose Response confirmation of uHTS hits for small molecule antagonists of the CRF-binding protein and CRF-R2 receptor complex.; assay type: functional; settings: read-out: IC50_Mean
T1 sequence (Q13324 whole entry): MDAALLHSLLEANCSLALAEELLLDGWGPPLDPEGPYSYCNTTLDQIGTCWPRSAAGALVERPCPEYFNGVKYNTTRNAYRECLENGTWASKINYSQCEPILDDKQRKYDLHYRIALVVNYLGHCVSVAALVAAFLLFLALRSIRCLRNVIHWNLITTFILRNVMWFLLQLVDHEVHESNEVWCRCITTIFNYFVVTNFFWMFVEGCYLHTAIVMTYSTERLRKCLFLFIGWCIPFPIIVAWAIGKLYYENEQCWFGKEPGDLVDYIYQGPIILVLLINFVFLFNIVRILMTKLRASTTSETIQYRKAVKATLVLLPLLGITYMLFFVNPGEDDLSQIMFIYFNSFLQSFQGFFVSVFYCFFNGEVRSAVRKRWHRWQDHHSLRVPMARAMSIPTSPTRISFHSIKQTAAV
T1 sequence (P24387 whole entry): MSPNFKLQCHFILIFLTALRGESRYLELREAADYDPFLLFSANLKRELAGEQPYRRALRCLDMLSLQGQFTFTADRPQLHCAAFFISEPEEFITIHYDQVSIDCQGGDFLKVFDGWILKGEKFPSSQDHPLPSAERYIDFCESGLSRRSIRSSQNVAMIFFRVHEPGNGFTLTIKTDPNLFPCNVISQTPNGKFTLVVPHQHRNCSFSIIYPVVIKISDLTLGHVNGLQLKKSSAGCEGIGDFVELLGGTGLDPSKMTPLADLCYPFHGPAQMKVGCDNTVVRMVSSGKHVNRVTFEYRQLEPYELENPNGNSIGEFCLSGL

[13] = molecular target: T1, Corticotropin-releasing factor receptor 2/Corticotropin-releasing factor-binding protein; assay: activators of CRF receptor 2 with binding protein – uHTS hits, confirmation (AID 602473); assay type: functional; settings: read-out: EC50_Mean
[14] = CRF-BP/CRF-R2 complex antagonists, dose response, cell-based, uHTS hits, 384-well (AID 651639); assay type: functional, Homo sapiens; settings: read-out: IC50_Mean
Fatty acid synthase [15] = molecular target: T2, Fatty acid synthase (Homo sapiens, UniProt P49327); assay: FAS thioesterase domain inhibitors, dose response, biochemical, endpoint fluorescence intensity, uHTS hits (AID 624327); assay type: functional;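 also: fluorescence from hydrolysis of an O-methyl fluorescein acyl ester substrate by the enzyme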
T2 sequence (P49327 whole entry, the tested form may be a part): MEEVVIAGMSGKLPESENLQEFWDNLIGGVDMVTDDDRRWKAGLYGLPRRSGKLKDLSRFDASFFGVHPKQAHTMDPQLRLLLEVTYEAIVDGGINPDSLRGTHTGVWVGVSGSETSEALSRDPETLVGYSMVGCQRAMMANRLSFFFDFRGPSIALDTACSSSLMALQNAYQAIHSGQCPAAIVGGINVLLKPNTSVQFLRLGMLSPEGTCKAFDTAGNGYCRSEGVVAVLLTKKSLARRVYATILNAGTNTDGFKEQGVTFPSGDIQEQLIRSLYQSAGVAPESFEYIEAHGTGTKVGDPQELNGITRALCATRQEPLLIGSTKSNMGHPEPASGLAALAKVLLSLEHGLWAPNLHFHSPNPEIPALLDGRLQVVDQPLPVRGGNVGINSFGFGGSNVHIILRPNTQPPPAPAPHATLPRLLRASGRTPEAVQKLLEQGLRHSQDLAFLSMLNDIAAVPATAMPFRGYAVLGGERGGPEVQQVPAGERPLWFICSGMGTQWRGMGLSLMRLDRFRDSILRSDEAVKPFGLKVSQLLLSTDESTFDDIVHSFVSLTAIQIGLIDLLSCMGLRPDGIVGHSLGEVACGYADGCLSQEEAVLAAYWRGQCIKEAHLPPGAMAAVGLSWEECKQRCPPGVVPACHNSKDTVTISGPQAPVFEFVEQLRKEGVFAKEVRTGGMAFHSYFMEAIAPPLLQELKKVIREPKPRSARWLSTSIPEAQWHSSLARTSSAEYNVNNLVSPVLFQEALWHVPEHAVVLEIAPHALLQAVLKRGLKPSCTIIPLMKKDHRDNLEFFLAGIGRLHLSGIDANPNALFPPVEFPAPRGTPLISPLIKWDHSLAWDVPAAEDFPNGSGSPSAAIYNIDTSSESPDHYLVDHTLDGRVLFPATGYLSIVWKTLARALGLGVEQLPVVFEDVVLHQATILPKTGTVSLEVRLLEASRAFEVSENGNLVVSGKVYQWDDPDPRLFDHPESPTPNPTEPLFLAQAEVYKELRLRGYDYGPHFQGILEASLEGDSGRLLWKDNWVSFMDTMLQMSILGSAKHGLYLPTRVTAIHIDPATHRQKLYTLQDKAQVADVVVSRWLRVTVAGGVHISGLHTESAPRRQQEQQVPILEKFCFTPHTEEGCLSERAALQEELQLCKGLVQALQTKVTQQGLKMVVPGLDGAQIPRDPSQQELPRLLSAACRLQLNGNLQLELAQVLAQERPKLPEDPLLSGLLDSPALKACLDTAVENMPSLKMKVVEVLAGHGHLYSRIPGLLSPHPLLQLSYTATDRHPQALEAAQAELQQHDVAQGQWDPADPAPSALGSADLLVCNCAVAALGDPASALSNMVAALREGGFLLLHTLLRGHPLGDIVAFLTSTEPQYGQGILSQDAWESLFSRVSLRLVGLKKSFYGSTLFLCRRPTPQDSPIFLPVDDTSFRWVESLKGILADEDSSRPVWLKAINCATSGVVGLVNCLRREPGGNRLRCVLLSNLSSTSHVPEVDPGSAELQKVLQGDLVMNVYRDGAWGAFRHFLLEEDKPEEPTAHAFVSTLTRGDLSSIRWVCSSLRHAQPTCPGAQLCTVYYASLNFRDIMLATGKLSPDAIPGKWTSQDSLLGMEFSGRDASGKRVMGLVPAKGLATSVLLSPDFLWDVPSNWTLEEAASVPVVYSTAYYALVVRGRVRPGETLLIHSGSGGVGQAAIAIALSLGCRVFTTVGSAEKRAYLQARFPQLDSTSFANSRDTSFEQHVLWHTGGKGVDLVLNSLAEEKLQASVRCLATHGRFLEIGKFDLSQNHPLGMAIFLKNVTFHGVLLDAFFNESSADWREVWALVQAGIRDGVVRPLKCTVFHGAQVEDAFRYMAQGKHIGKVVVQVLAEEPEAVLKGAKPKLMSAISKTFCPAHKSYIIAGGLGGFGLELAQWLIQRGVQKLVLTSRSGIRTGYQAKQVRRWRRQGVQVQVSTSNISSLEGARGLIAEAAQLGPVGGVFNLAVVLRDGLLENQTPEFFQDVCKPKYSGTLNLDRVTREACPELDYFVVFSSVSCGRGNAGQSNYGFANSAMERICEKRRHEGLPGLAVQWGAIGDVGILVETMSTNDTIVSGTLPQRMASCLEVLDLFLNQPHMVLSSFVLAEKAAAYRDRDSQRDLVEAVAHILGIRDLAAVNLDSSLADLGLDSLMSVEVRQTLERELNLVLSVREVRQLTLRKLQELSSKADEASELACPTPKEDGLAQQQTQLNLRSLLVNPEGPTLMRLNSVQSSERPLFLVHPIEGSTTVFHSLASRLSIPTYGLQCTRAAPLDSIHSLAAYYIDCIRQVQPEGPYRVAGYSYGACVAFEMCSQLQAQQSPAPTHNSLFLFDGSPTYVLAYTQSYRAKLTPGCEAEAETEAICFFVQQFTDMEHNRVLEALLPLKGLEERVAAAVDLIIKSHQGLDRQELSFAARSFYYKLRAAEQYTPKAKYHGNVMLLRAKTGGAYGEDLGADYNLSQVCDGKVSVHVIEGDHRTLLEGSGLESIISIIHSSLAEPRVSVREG

Fatty acid synthase [16] = molecular target: T2, Fatty acid synthase; assay: FAS thioesterase domain inhibitors, dose response, biochemical, kinetic fluorescence intensity (AID 624326); assay type: functional;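 also: rate of fluorescence rise from hydrolysis of a fluorogenic O-methyl fluorescein ester substrate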
[17] = inhibitors of Vif binding to APOBEC3G peptide, primary screen, biochemical, TR-FRET, GST-Vif 1-94, biotin-A3G peptide, dose response retest (AID 1117319); assay type: functional;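 also: TR-FRET signal of purified GST-Vif binding a biotinylated A3G peptide; inhibitors lower the FRET signal by blocking Vif and A3G binding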
[18] = molecular target: T3, Sentrin-specific protease 1 (Homo sapiens, UniProt Q9P0U3); assay: potency of human SENP1 inhibitors, dose response, biochemical, kinetic FRET (AID 651697); assay type: functional; settings: read-out: IC50_Mean
T3 sequence (Q9P0U3 whole entry): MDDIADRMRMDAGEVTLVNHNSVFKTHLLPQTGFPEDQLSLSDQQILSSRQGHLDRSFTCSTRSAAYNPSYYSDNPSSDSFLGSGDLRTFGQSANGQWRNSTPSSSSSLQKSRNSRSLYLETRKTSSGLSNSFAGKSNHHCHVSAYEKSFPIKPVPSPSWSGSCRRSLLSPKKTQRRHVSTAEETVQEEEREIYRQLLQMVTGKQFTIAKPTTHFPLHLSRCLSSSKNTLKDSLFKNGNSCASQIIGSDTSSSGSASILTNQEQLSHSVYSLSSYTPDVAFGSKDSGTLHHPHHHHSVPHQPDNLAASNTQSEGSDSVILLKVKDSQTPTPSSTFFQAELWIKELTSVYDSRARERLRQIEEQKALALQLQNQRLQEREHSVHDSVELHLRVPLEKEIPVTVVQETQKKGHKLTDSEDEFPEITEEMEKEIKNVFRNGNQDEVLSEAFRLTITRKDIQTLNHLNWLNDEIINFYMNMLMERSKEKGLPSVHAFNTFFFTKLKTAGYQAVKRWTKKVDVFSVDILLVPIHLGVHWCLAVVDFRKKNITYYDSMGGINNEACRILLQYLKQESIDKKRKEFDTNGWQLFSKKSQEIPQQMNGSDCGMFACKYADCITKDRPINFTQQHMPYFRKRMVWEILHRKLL

[19] = molecular target: T3, Sentrin-specific protease 1; assay: Dose response confirmation of small molecule inhibitors of the catalytic domain of the SUMO protease, SENP1 in a FRET assay.; assay type: functional; settings: read-out: IC50_Mean
[20] = molecular target: T4, RNA-binding protein pos-1 (Caenorhabditis elegans, UniProt G5EF15); assay: inhibitors of POS-1/mex-3 RNA binding, dose response, biochemical, fluorescence polarization (AID 1964);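 also: purified POS-1 fused to maltose binding protein made in E. coli; potency of compounds blocking POS-1 binding to fluorescent RNA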
T4 sequence (G5EF15 whole entry): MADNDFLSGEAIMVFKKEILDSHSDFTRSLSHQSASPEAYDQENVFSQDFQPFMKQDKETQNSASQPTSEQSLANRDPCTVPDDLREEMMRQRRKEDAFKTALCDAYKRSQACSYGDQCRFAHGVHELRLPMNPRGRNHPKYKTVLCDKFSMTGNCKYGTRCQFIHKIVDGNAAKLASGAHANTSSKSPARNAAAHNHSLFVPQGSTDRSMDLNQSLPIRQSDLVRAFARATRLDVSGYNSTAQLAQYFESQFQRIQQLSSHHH

[21] = molecular target: T5, Zinc finger protein mex-5 (Caenorhabditis elegans, UniProt Q9XUB2); assay: MEX-5/TCR-2 RNA interaction inhibitors, dose response, biochemical, C. elegans, fluorescence polarization (AID 1960)
T5 sequence (Q9XUB2 whole entry): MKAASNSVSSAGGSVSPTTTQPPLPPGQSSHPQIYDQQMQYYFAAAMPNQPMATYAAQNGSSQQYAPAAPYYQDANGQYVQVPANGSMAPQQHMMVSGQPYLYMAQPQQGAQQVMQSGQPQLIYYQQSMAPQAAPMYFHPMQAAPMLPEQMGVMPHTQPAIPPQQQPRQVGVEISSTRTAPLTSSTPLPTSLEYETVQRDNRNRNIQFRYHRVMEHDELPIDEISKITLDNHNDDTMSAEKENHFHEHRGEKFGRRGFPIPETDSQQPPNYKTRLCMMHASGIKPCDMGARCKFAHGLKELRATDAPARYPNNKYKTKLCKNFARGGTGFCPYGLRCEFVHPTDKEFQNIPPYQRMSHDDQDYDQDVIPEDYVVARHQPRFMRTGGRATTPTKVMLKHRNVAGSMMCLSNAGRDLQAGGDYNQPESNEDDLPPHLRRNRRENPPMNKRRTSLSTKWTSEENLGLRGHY

Q: For `CCOc1ccc(N(CC(=O)Nc2ccccc2OC)S(=O)(=O)c2ccccc2)cc1`, which EC50 [1] is on record?
A: Its EC50 is 4.97 µM (active).

Q: And the EC50 (BJ [2])?
A: Its EC50 is 0.928 µM (active).

Q: What about the EC50 [3] of the same compound?
A: Its EC50 is 0.36 µM (active).

Q: What about the EC50 [4] of the same compound?
A: Its EC50 is 0.323 µM (active).

Q: And the EC50 (BJ [5])?
A: Its EC50 is 20.3 µM (active).

Q: What about the EC50 (BJ [6]) of the same compound?
A: Its EC50 is 0.804 µM (active).

Q: And the EC50 [7]?
A: The EC50 was 0.663 µM (active).

Q: What about the AC50 [8] of the same compound?
A: Its AC50 is 30.7 µM (active).

Q: Which results are given for `OC[C@@H]1[C@@H](c2ccc(C#CC3CCCC3)cc2)[C@H]2CN(CCC(F)(F)F)CCCCN12`?
A: AC50 [8]: 12.9 µM (active); AC50 [9]: 1.02 µM (active); AC50 [10]: 8.47 µM (active)

Q: Which results are given for `O=C(O)c1ccc(Cl)c(NC(=S)NC(=O)c2cccc(COc3ccccc3)c2)c1`?
A: IC50 [11]: 2.3 µM (active); IC50 [12]: < 0.368 µM (active); EC50 [13]: > 53 µM (inactive); IC50 [14]: > 20 µM (inactive); IC50 (Fatty acid synthase [15]): 6.11 µM (active); IC50 (Fatty acid synthase [16]): 4.47 µM (active)

Q: With `Cc1cc(/C=N/n2cnnc2)c(C)n1-c1cccc(Cl)c1` as the compound, how does the IC50 [17] read?
A: The IC50 was > 100 µM (active).

Q: What does the source list for `COc1ccc(NN=C2C(=O)NC(=S)NC2=O)cc1`?
A: IC50 [18]: 29.1 µM (inactive); IC50 [19]: 16.6 µM (active)

Q: With `O=C(CN1C(=O)/C(=C\C=C\c2ccccc2)SC1=S)Nc1ccc(F)cc1` as the compound, how does the EC50 [20] read?
A: Its EC50 is > 300 µM (not active).

Q: What about the EC50 [21] of the same compound?
A: The EC50 was > 300 µM (not active).

Q: What about the IC50 [18] of the same compound?
A: The IC50 was 7.54 µM (active).

Q: What about the IC50 [19] of the same compound?
A: The IC50 was 5.21 µM (active).
